The structures appear in SMILES notation.

The target in the test is T1, ligand binding domain of human ROR gamma (Homo sapiens, UniProt P51449).
T1 construct: NM_001001523; expressed in transfected cells; host or cells: HEK293T
T1 sequence (P51449 247-497 isoform P51449-2): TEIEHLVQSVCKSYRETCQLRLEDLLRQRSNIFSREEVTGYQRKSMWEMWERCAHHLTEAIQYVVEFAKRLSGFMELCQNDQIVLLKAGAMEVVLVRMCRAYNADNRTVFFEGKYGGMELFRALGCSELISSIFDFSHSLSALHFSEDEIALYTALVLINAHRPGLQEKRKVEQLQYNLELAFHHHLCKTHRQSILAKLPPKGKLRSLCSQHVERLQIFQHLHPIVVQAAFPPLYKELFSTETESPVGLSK
Kind of test: ROR gamma reporter gene assay (GAL4-RORγ LBD luciferase, Dual-Glo). In kind it is cell-based. To be noted: HEK293T cells transfected with pM-ROR gamma, 8 concentrations 3.5 nM to 10.5 μM, 24 h incubation; read-out: result (pIC50, inhibition of RORγ transcriptional activity) (converted). A digest of the protocol:
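First, HEK293T cells are transfected with the GAL4–RORγ LBD construct, a 5×UAS luciferase reporter and a constitutive renilla control. Next, test compounds are added over eight concentrations (3.5 nM to 10.5 μM). After 24 h at 37 °C, Dual-Glo luminescence is measured and pIC50 fitted.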
(In general: Reporter assays use an easily measured gene product as a stand-in for the process of interest.)
Consider `O=C(CN(CC1CC1)C(=O)c1cnn([C@H]2CC[C@H](C(=O)O)CC2)c1C(F)(F)F)c1c(Cl)cncc1Cl` [Example 72, trans-4-(4-((cyclopropylmethyl)(2-(3,5-dichloropyridin-4-yl)-2-oxoethyl)carbamoyl)-5-(trifluoromethyl)-1H-pyrazol-1-yl)cyclohexanecarboxylic acid], for which the IC50 was 1.32e+06 pM.
Next, `CC(C)(F)CN(CC(=O)c1c(Cl)cncc1Cl)C(=O)c1cnn([C@H]2CC[C@H](C(=O)O)CC2)c1C(F)(F)F` [Example 73, trans-4-(4-((2-(3,5-dichloropyridin-4-yl)-2-oxoethyl)(2-fluoro-2-methylpropyl)carbamoyl)-5-(trifluoromethyl)-1H-pyrazol-1-yl)cyclohexanecarboxylic acid]: 646000 pM; `COC(C)(C)CN(CC(=O)c1c(Cl)cncc1Cl)C(=O)c1cnn([C@H]2CC[C@H](C(=O)O)CC2)c1C(F)(F)F` [Example 74, trans-4-(4-((2-(3,5-dichloropyridin-4-yl)-2-oxoethyl)(2-methoxy-2-methylpropyl)carbamoyl)-5-(trifluoromethyl)-1H-pyrazol-1-yl)cyclohexanecarboxylic acid]: 263000 pM; `O=C(CN(CC(F)(F)F)C(=O)c1cnn([C@H]2CC[C@H](C(=O)O)CC2)c1C(F)(F)F)c1c(Cl)cncc1Cl` [Example 75, trans-4-(4-((2-(3,5-dichloropyridin-4-yl)-2-oxoethyl)(2,2,2-trifluoroethyl)carbamoyl)-5-(trifluoromethyl)-1H-pyrazol-1-yl)cyclohexanecarboxylic acid]: 316000 pM.
As to `O=C(CN(Cc1ccncc1)C(=O)c1cnn([C@H]2CC[C@H](C(=O)O)CC2)c1C(F)(F)F)c1c(Cl)cncc1Cl` [Example 76, trans-4-(4-((2-(3,5-dichloropyridin-4-yl)-2-oxoethyl)(pyridin-4-ylmethyl)carbamoyl)-5-(trifluoromethyl)-1H-pyrazol-1-yl)cyclohexanecarboxylic acid], the IC50 was 1.7e+06 pM.
To `C[C@]1(C(=O)O)CC[C@H](n2ncc(C(=O)N(CC(=O)c3c(Cl)cncc3Cl)Cc3ccc(F)cc3)c2C(F)(F)F)CC1` [Example 77, trans-4-(4-((2-(3,5-dichloropyridin-4-yl)-2-oxoethyl)(4-fluorobenzyl)carbamoyl)-5-(trifluoromethyl)-1H-pyrazol-1-yl)-1-methylcylohexanecarboxylic acid] belongs 33900 pM; to `C[C@]1(C(=O)O)CC[C@H](n2ncc(C(=O)N(CC(=O)c3c(Cl)cncc3Cl)Cc3cc(F)cc(F)c3)c2C(F)(F)F)CC1` [Example 78, trans-4-(4-((2-(3,5-dichloropyridin-4-yl)-2-oxoethyl)(3,5-difluorobenzyl)carbamoyl)-5-(trifluoromethyl)-1H-pyrazol-1-yl)-1-methylcyclohexanecarboxylic acid], 10000 pM; to `C[C@]1(C(=O)O)CC[C@@H](n2ncc(C(=O)N(CC(=O)c3c(Cl)cncc3Cl)Cc3ccc(F)cc3)c2C(F)(F)F)CC1` [Example 79, trans-4-(4-((2-(3,5-dichloropyridin-4-yl)-2-oxoethyl)(4-fluorobenzyl)carbamoyl)-5-(trifluoromethyl)-1H-pyrazol-1-yl)-1-methylcyclohexanecarboxylic acid], 209000 pM.
Next, `O=C(CN(Cc1ccc(F)cc1)C(=O)c1cnn([C@H]2CC[C@@](F)(C(=O)O)CC2)c1C(F)(F)F)c1c(Cl)cncc1Cl` [Example 80, trans-4-(4-((2-(3,5-dichloropyridin-4-yl)-2-oxoethyl)(4-fluorobenzyl)carbamoyl)-5-(trifluoromethyl)-1H-pyrazol-1-yl)-1-fluorocyclohexanecarboxylic acid]: 661000 pM.
Regarding `O=C(CN(Cc1ccc(F)cc1)C(=O)c1cnn([C@H]2CC[C@](F)(C(=O)O)CC2)c1C(F)(F)F)c1c(Cl)cncc1Cl` [Example 81, cis-4-(4-((2-(3,5-dichloropyridin-4-yl)-2-oxoethyl)(4-fluorobenzyl)carbamoyl)-5-(trifluoromethyl)-1H-pyrazol-1-yl)-1-fluorocyclohexanecarboxylic acid], the IC50 was 93300 pM.
Turning to `O=C(CN(Cc1ccc(F)cc1)C(=O)c1cnn([C@H]2C[C@H](C(=O)O)C2)c1C(F)(F)F)c1c(Cl)cncc1Cl` [Example 82, trans-3-(4-((2-(3,5-dichloropyridin-4-yl)-2-oxoethyl)(4-fluorobenzyl)carbarnoyl)-5-(trifluoromethyl)-1H-pyrazol-1-yl)cyclobutanecarboxylic acid], the IC50 is 81300 pM.
Next, `CC(F)(F)c1c(C(=O)N(CC(=O)c2c(Cl)cncc2Cl)Cc2ccc(F)cc2)cnn1[C@H]1CC[C@H](C(=O)O)CC1` [Example 84, trans-4-(4-((2-(3,5-dichloropyridin-4-yl)-2-oxoethyl)(4-fluorobenzyl)carbamoyl)-5-(1,1-difluoroethyl)-1H-pyrazol-1-yl)cyclohexanecarboxylic acid]: 107000 pM; `O=C(CN(Cc1cc(F)cc(F)c1)C(=O)c1cnn([C@H]2CC[C@H](O)CC2)c1C(F)(F)F)c1c(Cl)cncc1Cl` [Example 85, N-(2-(3,5-dichloropyridin-4-yl)-2-oxoethyl)-N-(3,5-difluorobenzyl)-1-(trans-4-hydroxycyclohexyl)-5-(trifluoromethyl)-1H-pyrazole-4-carboxamide]: 1.48e+06 pM.
To `C[S+](=O)([O-])[C@H]1CC[C@@H](n2ncc(C(=O)N(CC(=O)c3c(Cl)cncc3Cl)Cc3ccc(F)cc3)c2C(F)(F)F)CC1` [Example 86, N-(2-(3,5-dichloropyridin-4-yl)-2-oxoethyl)-N-(4-fluorobenzyl)-1-(cis-4-(methylsulfonyl)cyclohexyl)-5-(trifluoromethyl)-1H-pyrazole-4-carboxamide] belongs 162000 pM; to `C[S+](=O)([O-])[C@H]1CC[C@H](n2ncc(C(=O)N(CC(=O)c3c(Cl)cncc3Cl)Cc3ccc(F)cc3)c2C(F)(F)F)CC1` [Example 87, N-(2-(3,5-dichloropyridin-4-yl)-2-oxoethyl)-N-(4-fluorobenzyl)-1-(trans-4-(methylsulfonyl)cyclohexyl)-5-(trifluoromethyl)-1H-pyrazole-4-carboxamide], 141000 pM; to `NC(=O)[C@H]1CC[C@H](n2ncc(C(=O)N(CC(=O)c3c(Cl)cncc3Cl)Cc3ccc(F)cc3)c2C(F)(F)F)CC1` [Example 88, l-(trans-4-carbamoylcyclohexyl)-N-(2-(3,5-dichloropyridin-4-yl)-2-oxoethyl)-N-(4-fluorobenzyl)-5-(trifluoromethyl)-1H-pyrazole-4-carboxamide], 87100 pM.
To `O=C(CN(Cc1ccc(F)cc1)C(=O)c1cnn([C@H]2CC[C@H](C(=O)NCCO)CC2)c1C(F)(F)F)c1c(Cl)cncc1Cl` [Example 89, N-(2-(3,5-dichloropyridin-4-yl)-2-oxoethyl)-N-(4-fluorobenzyl)-1-(trans-4-((2-hydroxyethyl)carbamoyl)cyclohexyl)-5-(trifluoromethyl)-1H-pyrazole-4-carboxamide] belongs 1.38e+06 pM.
Turning to `O=C(c1cnn([C@H]2CC[C@H](C(=O)O)CC2)c1C(F)(F)F)N(Cc1ccc(F)cc1)CC(O)c1c(Cl)cncc1Cl` (stereo partly drawn) [Example 90, trans-4-(4-((2-(3,5-dichloropyridin-4-yl)-2-hydroxyethyl)(4-fluorobenzyl)carbamoyl)-5-(trifluoromethyl)-1H-pyrazol-1-yl)cyclohexanecarboxylic acid], the IC50 was 501000 pM.
Next, `O=C(c1cnn([C@H]2CC[C@H](C(=O)O)CC2)c1C(F)(F)F)N(Cc1ccc(F)cc1)CC(F)c1c(Cl)cccc1Cl` (stereo partly drawn) [Example 91, trans-4-(4-((2-(2,6-dichlorophenyl)-2-fluoroethyl)(4-fluorobenzyl)carbamoyl) (trifluoromethyl)-1H-pyrazol-1-yl)cyclohexanecarboxylic acid]: 4370 pM; `O=C(CN(Cc1ccc(F)cc1)C(=O)c1cnn([C@H]2CC[C@H](C(=O)O)C2)c1C(F)(F)F)c1c(Cl)cncc1Cl` [Example 92, (1S,3S)-3-(4-((2-(3,5-dichloropyridin-4-yl)-2-oxoethyl)-((4-fluorophenyl)methyl)carbamoyl)-5-(trifluoromethyl)pyrazol-1-yl)cyclopentane-1-carboxylic acid]: 155000 pM.
For the compound `CC(C)(C)CN(CC(=O)c1c(Cl)cc(F)cc1Cl)C(=O)c1cnn([C@H]2CC[C@](C)(C(=O)O)CC2)c1C(F)(F)F` [Example 94, trans-4-(4-((2-(2,6-dichloro-4-fluorophenyl)-2-oxoethyl)-(2,2-dimethylpropyl)carbamoyl)-5-(trifluoromethyl)pyrazol-1-yl)-1-methylcyclohexane-1-carboxylic acid], the IC50 is 8320 pM.
To `CC(C)(C)OCCN(CC(=O)c1c(Cl)cncc1Cl)C(=O)c1cnn([C@H]2CC[C@H](C(=O)O)CC2)c1C(F)(F)F` [Example 95, trans-(4((2-(3,5-dichloropyridin-4-yl)-2-oxoethyl)-(2-((2-methylpropan-2-yl)oxy)ethyl)carbamoyl)-5-(trifluoromethyl)pyrazol-1-yl)cyclohexane-1-carboxylic acid] belongs 151000 pM; to `O=C(c1cnn([C@H]2CC[C@H](C(=O)O)CC2)c1C(F)(F)F)N(Cc1ccc(F)cc1)CC(F)(F)c1c(Cl)cccc1Cl` [Example 96, trans-4-(4-((2-(2,6-dichlorophenyl)-2,2-difluoroethyl)-((4-fluorophenyl)methyl)carbamoyl)-5-(trifluoromethyl)pyrazol-1-yl)cyclohexane-1-carboxylic acid], 28800 pM.

These data come from patent US9365522B2, “Pyrazole amide derivative” (AMGEN INC., priority 2015, dated 2016).
